≈ marks a conversion by molar mass, not a printed value. Read-outs that look alike come from different tables or passages of the source.
Columns and labels:
[1] = test system: Protein synthesis of S. aureus RN450; test: microbe, parasite or virus in culture; type: cell-based; conditions: for IC50 / IC90: Staphylococcus aureus; for IC50: read-out: Protein synthesis IC50; for IC90: read-out: Protein synthesis IC90
[2] = test system: Peptidoglycan synthesis of S. aureus RN450; test: microbe, parasite or virus in culture; type: cell-based; conditions: for IC50 / IC90: Staphylococcus aureus; for IC50: read-out: Peptidoglycan synthesis IC50; for IC90: read-out: Peptidoglycan synthesis IC90
S. aureus RN450 = test: microbe, parasite or virus in culture; type: cell-based; conditions: Staphylococcus aureus
S. pneumoniae 157E [3] = test: microbe, parasite or virus in culture; type: cell-based; conditions: Streptococcus pneumoniae
S. aureus MRSA5 = test: microbe, parasite or virus in culture; type: cell-based; conditions: Staphylococcus aureus
S. pneumoniae 700905 [4] = test: microbe, parasite or virus in culture; type: cell-based; conditions: Streptococcus pneumoniae
E. faecium 494 = test: microbe, parasite or virus in culture; type: cell-based; conditions: Enterococcus faecium
E. faecalis 29212 = test: microbe, parasite or virus in culture; type: cell-based; conditions: Enterococcus faecalis
S. pneumoniae 157E [5] = test system: S. pneumoniae 157E; parameters: species or system mice; conditions: mouse, in vivo
S. pneumoniae 700905 [6] = test system: S. pneumoniae 700905; parameters: species or system mice; conditions: mouse, in vivo
S. pneumoniae 157E [7] = test: animal or person; type: in vivo, mice; conditions: for responders at 5 mg/kg / responders at 10 mg/kg: Streptococcus pneumoniae, 157E, in Mus musculus, 48 h, read-out: % survival; for efficacy in words: mouse, in vivo
S. aureus RN4250 = test: microbe, parasite or virus in culture; type: cell-based; conditions: Staphylococcus aureus, RN4250

Structure (SMILES)	MIC (S. aureus RN450) [mg/L]	MIC (S. pneumoniae 157E [3]) [mg/L]	MIC (S. aureus MRSA5) [mg/L]	MIC (S. pneumoniae 700905 [4]) [mg/L]	MIC (E. faecium 494) [mg/L]	MIC (E. faecalis 29212) [mg/L]	further results
CN(C)[C@@H]1C(O)=C(C(N)=O)C(=O)[C@@]2(O)C(O)=C3C(=O)c4c(O)ccc(C#Cc5ccc(N)cc5)c4C[C@H]3C[C@@H]12 [AA]	1 (≈ 1.89 µM)	0.5 (≈ 0.944 µM)	0.5 (≈ 0.944 µM)	1 (≈ 1.89 µM)	–	–	macromolecular synthesis profile in words [1]: profile similar to class I compounds; IC50 [1]: 0.14 mg/L (≈ 0.264 µM); IC90 [1]: 1.4 mg/L (≈ 2.64 µM); effect on peptidoglycan biosynthesis in words [2]: affect peptidoglycan biosynthesis; IC50 [2]: 3.8 mg/L (≈ 7.18 µM); IC90 [2]: 23 mg/L (≈ 43.4 µM)
CN(C)[C@@H]1C(O)=C(C(N)=O)C(=O)[C@@]2(O)C(O)=C3C(=O)c4c(O)ccc(-c5ccc(CO)cc5)c4C[C@H]3C[C@@H]12 [AB]	0.06 (≈ 0.115 µM)	0.06 (≈ 0.115 µM)	1 (≈ 1.92 µM)	4 (≈ 7.68 µM)	–	–	IC50 [1]: 0.19 mg/L (≈ 0.365 µM); IC90 [1]: 1.8 mg/L (≈ 3.46 µM); IC50 [2]: 18.3 mg/L (≈ 35.2 µM); IC90 [2]: > 32 mg/L
COCCOC(=O)Nc1ccc(-c2ccc(O)c3c2C[C@H]2C[C@H]4[C@H](N(C)C)C(O)=C(C(N)=O)C(=O)[C@@]4(O)C(O)=C2C3=O)cc1 [AD]	0.06 (≈ 0.0987 µM)	0.13 (≈ 0.214 µM)	1 (≈ 1.65 µM)	0.5 (≈ 0.823 µM)	–	–	–
CN(C)[C@@H]1C(O)=C(C(N)=O)C(=O)[C@@]2(O)C(O)=C3C(=O)c4c(O)ccc(-c5ccc(NC(=O)c6ccno6)cc5)c4C[C@H]3C[C@@H]12 [AE]	0.06 (≈ 0.0999 µM)	0.13 (≈ 0.216 µM)	0.5 (≈ 0.833 µM)	1 (≈ 1.67 µM)	–	–	IC50 [1]: 0.07 mg/L (≈ 0.117 µM); IC90 [1]: 0.62 mg/L (≈ 1.03 µM); IC50 [2]: 6 mg/L (≈ 9.99 µM); IC90 [2]: > 32 mg/L
CCCCN(CCCC)Cc1cc(N(C)C)c2c(c1O)C(=O)C1=C(O)[C@]3(O)C(=O)C(C(N)=O)=C(O)[C@@H](N(C)C)[C@@H]3C[C@@H]1C2 [AH]	–	–	1 (≈ 1.67 µM)	0.06 (≈ 0.1 µM)	0.25 (≈ 0.418 µM)	0.25 (≈ 0.418 µM)	–
CN(CCCc1cc(N(C)C)c2c(c1O)C(=O)C1=C(O)[C@]3(O)C(=O)C(C(N)=O)=C(O)[C@@H](N(C)C)[C@@H]3C[C@@H]1C2)Cc1ccccc1 [AK]	1 (≈ 1.62 µM)	0.5 (≈ 0.808 µM)	2 (≈ 3.23 µM)	0.5 (≈ 0.808 µM)	–	–	–
C[C@H]1c2ccc(CN3CCC(C(F)(F)F)CC3)c(O)c2C(=O)C2=C(O)[C@]3(O)C(=O)C(C(N)=O)=C(O)[C@@H](N(C)C)C3[C@@H](O)C21 (some centres unmarked) [AN]	–	–	–	–	–	–	PD50 (S. pneumoniae 157E [5]; iv): 0.54 mg/kg; PD50 (S. pneumoniae 157E [5]; po): 2.3 mg/kg; PD50 (S. pneumoniae 700905 [6]; iv): 1.4 mg/kg; PD50 (S. pneumoniae 700905 [6]; po): 8.4 mg/kg
CO/N=C/c1cc(-c2ccc(O)c3c2C[C@H]2C[C@H]4[C@H](N(C)C)C(O)=C(C(N)=O)C(=O)[C@@]4(O)C(O)=C2C3=O)ccc1OC [A]	0.25 (≈ 0.433 µM)	–	1 (≈ 1.73 µM)	0.25 (≈ 0.433 µM)	1 (≈ 1.73 µM)	1 (≈ 1.73 µM)	IC50 [1]: 1.9 mg/L (≈ 3.29 µM); IC90 [1]: 5 mg/L (≈ 8.66 µM); effect on peptidoglycan biosynthesis in words [2]: affect peptidoglycan biosynthesis; IC50 [2]: 2.1 mg/L (≈ 3.64 µM); IC90 [2]: 3.8 mg/L (≈ 6.58 µM)
CN(C)c1cc(CNC2CCCCC2)c(O)c2c1C[C@H]1C[C@H]3[C@H](N(C)C)C(O)=C(C(N)=O)C(=O)[C@@]3(O)C(O)=C1C2=O [B]	–	–	1 (≈ 1.76 µM)	0.5 (≈ 0.879 µM)	1 (≈ 1.76 µM)	1 (≈ 1.76 µM)	responders at 5 mg/kg (S. pneumoniae 157E [7]; po): 40%; responders at 5 mg/kg (S. pneumoniae 157E [7]; sc): 100%; efficacy in words (S. pneumoniae 157E [7]): efficacious
CC(CF)N(C)Cc1cc(N(C)C)c2c(c1O)C(=O)C1=C(O)[C@]3(O)C(=O)C(C(N)=O)=C(O)[C@@H](N(C)C)[C@@H]3C[C@@H]1C2 (some centres unmarked) [Compound C]	–	–	1 (≈ 1.78 µM)	0.25 (≈ 0.446 µM)	0.25 (≈ 0.446 µM)	0.5 (≈ 0.892 µM)	responders at 10 mg/kg (S. pneumoniae 157E [7]; po): 60%; responders at 5 mg/kg (S. pneumoniae 157E [7]; sc): 100%; efficacy in words (S. pneumoniae 157E [7]): efficacious
CN(Cc1ccccc1)Cc1cc(N(C)C)c2c(c1O)C(=O)C1=C(O)[C@]3(O)C(=O)C(C(N)=O)=C(O)[C@@H](N(C)C)[C@@H]3C[C@@H]1C2 [Compound I]	–	–	1 (≈ 1.69 µM)	0.5 (≈ 0.846 µM)	1 (≈ 1.69 µM)	1 (≈ 1.69 µM)	PD50 (S. pneumoniae 157E [5]; iv): 1 mg/kg; PD50 (S. pneumoniae 157E [5]; po): 13.4 mg/kg; oral activity in words (S. pneumoniae 157E [5]; po): exhibited oral activity; PD50 (S. pneumoniae 700905 [6]; iv): 2.2 mg/kg; PD50 (S. pneumoniae 700905 [6]; po): 31.6 mg/kg
COc1ccc(-c2ccc(O)c3c2C[C@H]2C[C@H]4[C@H](N(C)C)C(O)=C(C(N)=O)C(=O)[C@@]4(O)C(O)=C2C3=O)cc1CN(C)C(C)C [Compound M]	0.06 (≈ 0.0991 µM)	–	–	–	–	–	MIC (S. aureus RN4250): 0.06 mg/L (≈ 0.0991 µM)
CC1CN(C2CCN(Cc3cc(N(C)C)c4c(c3O)C(=O)C3=C(O)[C@]5(O)C(=O)C(C(N)=O)=C(O)[C@@H](N(C)C)[C@@H]5C[C@@H]3C4)CC2)CC(C)O1 (some centres unmarked) [Compound R]	–	–	1 (≈ 1.5 µM)	0.13 (≈ 0.195 µM)	1 (≈ 1.5 µM)	2 (≈ 2.99 µM)	–
CN(C)Cc1ccc(-c2ccc(O)c3c2C[C@H]2C[C@H]4[C@H](N(C)C)C(O)=C(C(N)=O)C(=O)[C@@]4(O)C(O)=C2C3=O)cc1 [Compound V]	0.06 (≈ 0.11 µM)	–	–	–	–	–	MIC (S. aureus RN4250): 0.06 mg/L (≈ 0.11 µM)
COC(=O)c1ccc(CNCc2cc(N(C)C)c3c(c2O)C(=O)C2=C(O)[C@]4(O)C(=O)C(C(N)=O)=C(O)[C@H](N(C)C)[C@@H]4C[C@@H]2C3)cc1 [D]	–	–	1 (≈ 1.58 µM)	0.25 (≈ 0.394 µM)	1 (≈ 1.58 µM)	0.25 (≈ 0.394 µM)	responders at 10 mg/kg (S. pneumoniae 157E [7]; po): 0%; responders at 5 mg/kg (S. pneumoniae 157E [7]; sc): 0%
